Data as given in PubChem BioAssay (NCI).
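How tested: cells in 96-well plates exposed to compound for 48 hours at five concentrations. GI50: concentration for 50% inhibition of growth. TGI marks complete inhibition of growth.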

What was measured:
Experiment in all cases: growth of human tumour cells (NCI), 48 h
[1] = test system: MCF7 breast
[2] = test system: COLO 205 colon
[3] = test system: HL-60(TB) leukemia
[4] = test system: SR leukemia
[5] = test system: NCI-H460 lung
[6] = test system: SNB-75 CNS
[7] = test system: SF-295 CNS
[8] = test system: SF-268 CNS
[9] = test system: SK-MEL-5 melanoma
[10] = test system: DU-145 prostate
[11] = test system: UO-31 renal
[12] = test system: HCC-2998 colon
[13] = test system: U251 CNS
[14] = test system: TK-10 renal
[15] = test system: MDA-N
[16] = test system: SN12C renal
[17] = test system: OVCAR-3 ovarian
[18] = test system: NCI-H23 lung
[19] = test system: XF 498 CNS
[20] = test system: IGROV1 ovarian
[21] = test system: LXFL 529 NSCLC
[22] = test system: A498 renal
[23] = test system: EKVX NSCLC
[24] = test system: BT-549 breast
[25] = test system: OVCAR-8 ovarian
[26] = test system: HCT-116 colon
[27] = test system: SF-539 CNS
[28] = test system: SK-OV-3 ovarian
[29] = test system: 786-0 renal
[30] = test system: HCT-15 colon
[31] = test system: SNB-19 CNS
[32] = test system: SNB-78 CNS
[33] = test system: RPMI-8226 leukemia
[34] = test system: ACHN renal
[35] = test system: DLD-1 colon
[36] = test system: RXF 393 renal
[37] = test system: CAKI-1 renal
[38] = test system: HOP-18 NSCLC
[39] = test system: HOP-62 NSCLC
[40] = test system: NCI/ADR-RES ovarian
[41] = test system: MOLT-4 leukemia
[42] = test system: HT29 colon
[43] = test system: KM20L2 colon
[44] = test system: SK-MEL-2 melanoma
[45] = test system: MALME-3M melanoma
[46] = test system: SK-MEL-28 melanoma
[47] = test system: NCI-H522 lung
[48] = test system: T-47D breast
[49] = test system: HS 578T breast
[50] = test system: LOX IMVI melanoma
[51] = test system: M14 melanoma
[52] = test system: M19-MEL melanoma
[53] = test system: K-562 leukemia
[54] = test system: SW-620 colon
[55] = test system: CCRF-CEM leukemia
[56] = test system: NCI-H226 lung
[57] = test system: UACC-257 melanoma
[58] = test system: A549 NSCLC
[59] = test system: MDA-MB-435
[60] = test system: OVCAR-5 ovarian
[61] = test system: PC-3 prostate
[62] = test system: RXF-631 renal
[63] = test system: UACC-62 melanoma
[64] = test system: OVCAR-4 ovarian
[65] = test system: HOP-92 NSCLC
[66] = test system: DMS 114 small cell lung

Work on `COC1/C=C\C=C(/C)C(=O)NC2=CC(=O)C(N)=C(CC(C)CC(OC)C(O)C(C)C=C(C)C1OC(N)=O)C2=O` (stereo not drawn) yielded a TGI [1] of 37.6 µM, a GI50 [2] of 0.0614 µM and a TGI [2] of 0.0507 µM. The TGI [3] was 19.3 µM, the GI50 [4] was less than 0.01 µM and the TGI [4] was 1.64 µM. The GI50 [5] was 0.0459 µM, the TGI [5] was greater than 54.7 µM and the TGI [6] was 11.3 µM. It also gave a TGI [7] greater than 62.2 µM, a TGI [8] of 68.6 µM and a TGI [9] of 15.8 µM. For the same compound, the GI50 [10] was 0.067 µM, the TGI [10] was 31.7 µM and the TGI [11] was 40.4 µM. The TGI [12] was 1.74 µM, the GI50 [13] was 0.0822 µM and the TGI [13] was greater than 48.9 µM. It also gave a TGI [14] greater than 77.2 µM, a GI50 [15] of 0.0829 µM and a TGI [15] of 12.6 µM. The TGI [16] was 29 µM, the TGI [17] was 20.2 µM and the GI50 [18] was 0.0375 µM. The TGI [18] was 21.5 µM, the TGI [19] was 24.8 µM and the TGI [20] was 25.9 µM. It also gave a TGI [21] greater than 100 µM, a TGI [22] greater than 96.4 µM and a TGI [23] of 63 µM. For the same compound, the GI50 [24] was 0.0806 µM, the TGI [24] was greater than 45.2 µM and the TGI [25] was 33.9 µM. The TGI [26] was 25.3 µM, the GI50 [27] was 0.0397 µM and the TGI [27] was greater than 44.4 µM. For the same compound, the GI50 [28] was 0.0822 µM, the TGI [28] was greater than 100 µM and the TGI [29] was greater than 100 µM. For the same compound, the TGI [30] was 31.5 µM, the TGI [31] was 93.7 µM and the TGI [32] was 91.1 µM. It also gave a TGI [33] of 65.4 µM, a TGI [34] of 83.5 µM and a TGI [35] of 17.7 µM. For the same compound, the TGI [36] was greater than 94.7 µM, the TGI [37] was greater than 89.8 µM and the TGI [38] was 32.4 µM. For the same compound, the TGI [39] was greater than 78 µM, the TGI [40] was greater than 100 µM and the TGI [41] was 48.7 µM. The GI50 [42] was 0.0337 µM, the TGI [42] was greater than 63.7 µM and the TGI [43] was 0.0192 µM. For the same compound, the TGI [44] was 14.9 µM, the TGI [45] was 15.4 µM and the GI50 [46] was 0.0513 µM. The TGI [46] was greater than 73.8 µM, the TGI [47] was 0.392 µM and the TGI [48] was 33.7 µM. For the same compound, the TGI [49] was 59.4 µM, the GI50 [50] was 0.0761 µM and the TGI [50] was 1.55 µM. The GI50 [51] was 0.0379 µM, the TGI [51] was 33.4 µM and the TGI [52] was 12.5 µM. It also gave a GI50 [53] of 0.0982 µM, a TGI [53] greater than 69.6 µM and a GI50 [54] of 0.0468 µM. The TGI [54] was 17.4 µM, the TGI [55] was 35.8 µM and the TGI [56] was greater than 100 µM. For the same compound, the TGI [57] was 14.5 µM, the TGI [58] was 40.9 µM and the GI50 [59] was 0.051 µM. It also gave a TGI [59] of 14.9 µM, a TGI [60] of 39.7 µM and a TGI [61] greater than 75.7 µM. It also gave a TGI [62] greater than 100 µM, a GI50 [63] of 0.0322 µM and a TGI [63] of 18.4 µM. For the same compound, the TGI [64] was 36.9 µM.
In the case of `Cc1nc2ccccn2c1N=Nc1ccc(C(=O)NN)cc1`, the TGI [2] is reported as greater than 100 µM, the TGI [3] is reported as greater than 100 µM and the TGI [65] is reported as greater than 100 µM. It also gave a TGI [7] greater than 100 µM, a TGI [8] greater than 100 µM and a TGI [9] of 69.1 µM. For the same compound, the TGI [11] was greater than 100 µM, the TGI [12] was greater than 100 µM and the TGI [66] was greater than 100 µM. The TGI [13] was greater than 100 µM, the TGI [14] was greater than 100 µM and the TGI [16] was greater than 100 µM. It also gave a TGI [17] greater than 100 µM, a TGI [18] greater than 100 µM and a TGI [19] greater than 100 µM. For the same compound, the TGI [20] was 89.7 µM, the TGI [21] was greater than 100 µM and the TGI [22] was greater than 100 µM. The TGI [23] was greater than 100 µM, the TGI [25] was greater than 100 µM and the TGI [27] was greater than 100 µM. It also gave a TGI [28] greater than 100 µM, a TGI [29] greater than 100 µM and a TGI [30] greater than 100 µM. The TGI [31] was greater than 100 µM, the TGI [32] was greater than 100 µM and the TGI [33] was greater than 100 µM. For the same compound, the TGI [34] was greater than 100 µM, the TGI [35] was greater than 100 µM and the TGI [36] was 60.1 µM. It also gave a TGI [37] greater than 100 µM, a TGI [38] greater than 100 µM and a TGI [39] greater than 100 µM. For the same compound, the TGI [41] was 40.8 µM, the TGI [42] was greater than 100 µM and the TGI [43] was greater than 100 µM. It also gave a TGI [45] greater than 100 µM, a TGI [46] greater than 100 µM and a TGI [50] greater than 100 µM. It also gave a TGI [51] greater than 100 µM, a TGI [52] greater than 100 µM and a TGI [53] greater than 100 µM. It also gave a TGI [54] greater than 100 µM, a TGI [55] of 30.6 µM and a TGI [56] greater than 100 µM. For the same compound, the TGI [57] was greater than 100 µM, the TGI [58] was greater than 100 µM and the TGI [60] was greater than 100 µM. For the same compound, the TGI [62] was greater than 100 µM, the TGI [63] was greater than 100 µM and the TGI [64] was greater than 100 µM.
